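96-well plates; 48 h exposure; 5 concentrations. Endpoints by linear interpolation between flanking doses. Not reached: highest tested concentration assigned. GI50 = concentration required for 50% inhibition of growth.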 The source made the active and inactive calls. No stated cut-off is given here; in the data, active = GI50 up to about 1.1 µM and inactive = higher.
How the values were obtained:
Assay in all cases: DTP human tumour cell line panel, 48 h
[1] = test system: UACC-257
[2] = test system: K562
[3] = test system: SF-268
[4] = test system: Malme-3M
[5] = test system: SK-MEL-28
[6] = test system: M19-MEL
[7] = test system: CAKI-1
[8] = test system: SN12C
[9] = test system: MOLT-4
[10] = test system: NCI-H522
[11] = test system: OVCAR-8
[12] = test system: ACHN
[13] = test system: HL-60
[14] = test system: SK-OV-3
[15] = test system: HCT-15
[16] = test system: HCT-116
[17] = test system: PC-3
[18] = test system: MDA-N
[19] = test system: DU-145
[20] = test system: MDA-MB-435

Row | SMILES | GI50 [1] | GI50 [2] | GI50 [3] | GI50 [4] | GI50 [5] | GI50 [6] | GI50 [7] | GI50 [8] | GI50 [9] | GI50 [10] | GI50 [11] | GI50 [12] | GI50 [13] | GI50 [14] | GI50 [15] [µM] | GI50 [16] | GI50 [17] | GI50 [18] | GI50 [19] | GI50 [20]
1 | CC1=C(C(=O)Nc2cc(=O)n(C)c(=O)n2C)C(c2ccco2)C(C(=O)Nc2cc(=O)n(C)c(=O)n2C)=C(C)N1 | > 100 µM (inactive) | > 100 µM (inactive) | > 100 µM (inactive) | > 100 µM (inactive) | > 100 µM (inactive) | > 100 µM (inactive) | > 100 µM (inactive) | > 100 µM (inactive) | > 100 µM (inactive) | > 100 µM (inactive) | > 100 µM (inactive) | > 100 µM (inactive) | > 100 µM (inactive) |  |  |  |  |  |  | 
2 | COC(=O)/C=C/C1C2C3(CCC(C)C12C)OCCS3 (stereo not given) | > 100 µM (inactive) | > 100 µM (inactive) | > 100 µM (inactive) | > 100 µM (inactive) | > 100 µM (inactive) | > 100 µM (inactive) |  | > 100 µM (inactive) | 40.6 µM (inactive) | > 100 µM (inactive) | > 100 µM (inactive) | > 100 µM (inactive) | > 100 µM (inactive) | > 100 µM (inactive) | > 100 | > 100 µM (inactive) |  |  |  | 
3 | O=C(c1ccccn1)c1nc(-c2ccc(Cl)c(Cl)c2)nc2ccc(Cl)cc12 | > 100 µM (inactive) | 92 µM (inactive) |  | 32.3 µM (inactive) | > 100 µM (inactive) | 81.1 µM (inactive) | 56.6 µM (inactive) |  | 58.6 µM (inactive) |  | > 100 µM (inactive) | 44.3 µM (inactive) | > 100 µM (inactive) | 36.4 µM (inactive) | 39.2 | 15.5 µM (inactive) |  |  |  | 
4 | O=C(NC12CC3CCC1CC(C3)C2)[C@@H]1CCCN1C(=O)OCc1ccccc1 (stereo not given in full) | 34.7 µM (inactive) | 33.7 µM (inactive) | 94.8 µM (inactive) | 37.5 µM (inactive) | 31.1 µM (inactive) | 83.6 µM (inactive) |  | 46.5 µM (inactive) | 30.1 µM (inactive) | 54.7 µM (inactive) | 50.5 µM (inactive) | 44 µM (inactive) | 25.8 µM (inactive) | 65.3 µM (inactive) | 44.2 | 58.9 µM (inactive) |  |  |  | 
5 | COC(=O)c1ccccc1C1CN=NC12Cc1ccc(C)c(C)c1C2=O (stereo not given) | 25.8 µM (inactive) | 28.9 µM (inactive) | > 100 µM (inactive) | > 100 µM (inactive) | > 100 µM (inactive) |  | 79.6 µM (inactive) | > 100 µM (inactive) | 26.1 µM (inactive) | 6.84 µM (inactive) | > 100 µM (inactive) | > 100 µM (inactive) | 16.3 µM (inactive) | > 100 µM (inactive) | 33.9 | 29.6 µM (inactive) | 50.8 µM (inactive) | 77.4 µM (inactive) | > 100 µM (inactive) | 64.3 µM (inactive)
6 | COc1ccc(OCC(=O)O)c2c1CCCC2=O | > 100 µM (inactive) | > 100 µM (inactive) | > 100 µM (inactive) | > 100 µM (inactive) | > 100 µM (inactive) | > 100 µM (inactive) |  | > 100 µM (inactive) | > 100 µM (inactive) | > 100 µM (inactive) | > 100 µM (inactive) | > 100 µM (inactive) | > 100 µM (inactive) | > 100 µM (inactive) | > 100 | > 100 µM (inactive) |  |  |  | 
7 | COc1cc(Nc2cnc3ccc(C(F)(F)F)cc3n2)cc(OC)c1OC | 9.84 µM (inactive) |  | 84.5 µM (inactive) | > 100 µM (inactive) | > 100 µM (inactive) | 13.6 µM (inactive) |  | > 100 µM (inactive) | 39.7 µM (inactive) |  | > 100 µM (inactive) | 9.95 µM (inactive) | 9.71 µM (inactive) |  | 3.95 | 45.8 µM (inactive) |  |  |  | 
8 | Oc1cccc2c(Br)ccnc12 | 2.48 µM (inactive) | 0.593 µM (active) | 0.767 µM (active) | 8.38 µM (inactive) | 12.3 µM (inactive) |  | 12.3 µM (inactive) | 3.62 µM (inactive) | 0.855 µM (active) | 3.16 µM (inactive) | 1.22 µM (inactive) | 2.58 µM (inactive) | 0.181 µM (active) | 26.7 µM (inactive) | 2.27 | 1.4 µM (inactive) | 4.17 µM (inactive) | 5.71 µM (inactive) | 3.89 µM (inactive) | 5.92 µM (inactive)
9 | NC1=CN(Cc2ccccc2)C2=N/C(=C\c3ccccc3O)C(=O)N12 | > 100 µM (inactive) | 73.3 µM (inactive) | > 100 µM (inactive) | > 100 µM (inactive) | > 100 µM (inactive) |  | > 100 µM (inactive) | > 100 µM (inactive) | 96.4 µM (inactive) | > 100 µM (inactive) | > 100 µM (inactive) | > 100 µM (inactive) | > 100 µM (inactive) | > 100 µM (inactive) | > 100 | > 100 µM (inactive) | > 100 µM (inactive) | > 100 µM (inactive) | > 100 µM (inactive) | > 100 µM (inactive)
10 | O=C(O)C1Cc2c([nH]c3ccccc23)C(CCCCO)N1 (stereo not given) | > 100 µM (inactive) | > 100 µM (inactive) | > 100 µM (inactive) | > 100 µM (inactive) | > 100 µM (inactive) |  | > 100 µM (inactive) | > 100 µM (inactive) | > 100 µM (inactive) | > 100 µM (inactive) | > 100 µM (inactive) | > 100 µM (inactive) | > 100 µM (inactive) | > 100 µM (inactive) | > 100 | > 100 µM (inactive) | > 100 µM (inactive) | > 100 µM (inactive) | > 100 µM (inactive) | > 100 µM (inactive)
11 | Oc1cccc(-c2cn3cc(C(F)(F)F)ccc3n2)c1 | 22.9 µM (inactive) | 30.5 µM (inactive) | 38.8 µM (inactive) | 27.9 µM (inactive) | 61.9 µM (inactive) |  | 47.9 µM (inactive) | 47.9 µM (inactive) | 17.1 µM (inactive) | 13.5 µM (inactive) | 27.8 µM (inactive) | 39.9 µM (inactive) | 32.6 µM (inactive) | 33.4 µM (inactive) | 29.2 | 39.9 µM (inactive) | 32.2 µM (inactive) | 35.7 µM (inactive) | 18.6 µM (inactive) | 32 µM (inactive)
12 | O=C(O)CCC(=O)c1ccc2ccc3cccc4ccc1c2c34 | 33 µM (inactive) | 81.7 µM (inactive) | 61.7 µM (inactive) | > 100 µM (inactive) | 87.3 µM (inactive) |  | > 100 µM (inactive) | 57 µM (inactive) | 60.3 µM (inactive) | 83.8 µM (inactive) | 66.7 µM (inactive) | 52.7 µM (inactive) | 23 µM (inactive) | > 100 µM (inactive) | 38 | 65.8 µM (inactive) | 67.9 µM (inactive) | > 100 µM (inactive) | > 100 µM (inactive) | 98.2 µM (inactive)
13 | C=C1CC2[C@H](C)C(=O)CCC2(C)C2=C1C1CCC(C(C)CCC(=C)C(C)C(=O)O)C1(C)CC2=O (stereo not given in full) | 29.2 µM (inactive) | 9.75 µM (inactive) | > 100 µM (inactive) | > 100 µM (inactive) | > 100 µM (inactive) |  | > 100 µM (inactive) | > 100 µM (inactive) | 16.8 µM (inactive) | 47.1 µM (inactive) | 75.7 µM (inactive) | 31.9 µM (inactive) | 15.2 µM (inactive) | 89.5 µM (inactive) | 40.5 | 32.5 µM (inactive) | 32.1 µM (inactive) | 95.3 µM (inactive) | 53.1 µM (inactive) | 58.5 µM (inactive)
14 | O=C1CSC(=S)N1/N=C/c1ccc(Cl)c([N+](=O)[O-])c1 | 23.8 µM (inactive) | 38.3 µM (inactive) | 19.6 µM (inactive) | 19.1 µM (inactive) | 27.5 µM (inactive) |  | 33.7 µM (inactive) | 25.8 µM (inactive) | 31.1 µM (inactive) | 18.3 µM (inactive) | 32.9 µM (inactive) | 23.3 µM (inactive) | 24.2 µM (inactive) | 36.6 µM (inactive) | 20.2 | 23 µM (inactive) | 24.6 µM (inactive) | 22.4 µM (inactive) | 36.6 µM (inactive) | 20.7 µM (inactive)
15 | N#CC(c1ccccc1)N(CCc1ccccc1)C(=O)Oc1ccccc1 (stereo not given) | > 100 µM (inactive) | > 100 µM (inactive) | > 100 µM (inactive) | > 100 µM (inactive) | > 100 µM (inactive) |  | > 100 µM (inactive) | > 100 µM (inactive) | > 100 µM (inactive) | > 100 µM (inactive) | > 100 µM (inactive) | > 100 µM (inactive) | > 100 µM (inactive) | > 100 µM (inactive) | > 100 | > 100 µM (inactive) | > 100 µM (inactive) | > 100 µM (inactive) | > 100 µM (inactive) | > 100 µM (inactive)
16 | Cc1c2ccncc2c(C)c2c1[nH]c1ccc(Cl)cc12 |  | 1.62 µM (inactive) |  | 5.68 µM (inactive) | 5.69 µM (inactive) | 2.56 µM (inactive) |  | 3.41 µM (inactive) |  | 2.36 µM (inactive) | 1.22 µM (inactive) | 1.26 µM (inactive) | 2.11 µM (inactive) | 7.19 µM (inactive) | 1.75 | 1.07 µM (active) |  |  |  | 
17 | NS(=O)(=O)c1ccc(NC(=O)c2ccc3nc4ccccc4c(Nc4ccc(S(N)(=O)=O)cc4)c3c2)cc1 | > 100 µM (inactive) | > 100 µM (inactive) | 87.5 µM (inactive) | > 100 µM (inactive) | > 100 µM (inactive) |  | > 100 µM (inactive) | > 100 µM (inactive) | > 100 µM (inactive) | > 100 µM (inactive) | > 100 µM (inactive) | > 100 µM (inactive) | > 100 µM (inactive) | > 100 µM (inactive) | > 100 | > 100 µM (inactive) | > 100 µM (inactive) | > 100 µM (inactive) | > 100 µM (inactive) | > 100 µM (inactive)

From ChEMBL document CHEMBL1201862, “PubChem BioAssay data set” (2004)
